Measurements as given in paper PMC8708940, “Crossing of the Cystic Barriers of Toxoplasma gondii by the Fluorescent Coumarin Tetra-Cyclopeptide” (Molecules, 2021).

Assays:
[1] = test system: human cells HFF; assay type: cell-based; details: human foreskin fibroblasts
Procedure: (§1) All T. gondii strains were maintained by serial passage in an HFF (Human Foreskin Fibroblasts) monolayer under tachyzoite growth conditions in Dulbecco’s modified Eagle medium (DMEM; Invitrogen) supplemented with 10% (vol/vol) fetal bovine serum (FBS; Invitrogen), 4 mM glutamine, 500 U/mL penicillin, 250 µg/mL streptomycin at 37 °C and 25 mM Hepes buffer (Invitrogen) in 5% CO2.

[2] = test system: T. gondii RH strain tachyzoite; assay type: cell-based, Toxoplasma gondii; details: intracellular growth of RH strain tachyzoite in HFF
Text: The parasite strains used in this study are the following: the T. gondii type I RH strain that has lost the ability to complete cyst conversion, the T. gondii type II Prugniaud (Pru) strain that is capable of robust bradyzoite differentiation, the T. gondii type II Pru-Δhxgprt-A7 strain that expresses green fluorescent protein (GFP), the Pru-Δku80 strain [36, 37], and the RH Tg hdac3 T99A strain (previously obtained in our laboratory).
as §1

[3] = test system: Ex vivo T. gondii cysts (PRU strain); assay: Cyst and bradyzoite penetration observed by fluorescence microscopy; assay type: cell-based, Toxoplasma gondii; details: 37 °C, exposure time 100 ms
Text: To focus on the ability of the cyclic tetrapeptide moiety to transport compounds through the cyst wall, we began our investigation by monitoring the transport of the poorly cell-permeable fluorochrome 3 (Figure 2) by optical microscopy.
To ensure that the fluorescent compound was incorporated to the parasite cell, bradyzoites were released from treated cysts (Figure 3b).
Cysts were isolated from the brains of mice chronically infected with the Pru-Δhxgprt-A7 or the Pru strains for at least 6 weeks, either using the Percoll gradient method as described previously or directly harvesting the cysts using a 10-μL pipet for the dye experimentation in order to prevent deterioration of the cyst wall for the permeability studies.
Images were acquired with a Axioplan 2 fluorescence microscope (Carl Zeiss Microimaging, Thornwood, NY, USA) and processed with the ZEN software (Zeiss).

| SMILES | EC50 [1] [nM] | EC50 [2] [nM] | Fluorescence of isolated cysts (penetration and accumulation in the cyst) ([3]; 200 nM to 3.7 µM, 3, 22 and 96 h) | Labeling of bradyzoites released from treated cysts ([3]; 3.7 µM for 3 h, bradyzoites released from the cyst) | Fluorescent labeling of isolated cysts (cyst penetration) ([3]; isolated ex vivo cysts, 1 µM, 24 h, PBS washing) |
| --- | --- | --- | --- | --- | --- |
| CCN(CC)c1ccc2cc(-n3cc(C[C@]4(C)NC(=O)[C@H](CCCCCC(=O)[C@@H](C)O)NC(=O)[C@H]5CCCN5C(=O)[C@H](Cc5ccccc5)NC4=O)nn3)c(=O)oc2c1 [compound 1] | 280 ± 20 | 43 ± 2.2 | increasing fluorescence was observed | clearly show labeling of these bradyzoites |  |
| C=CCC[C@@H]1NC(=O)[C@H]2CCCN2C(=O)[C@H](Cc2ccccc2)NC(=O)[C@](C)(Cc2cn(-c3cc4ccc(N(CC)CC)cc4oc3=O)nn2)NC1=O [compound 2] |  |  |  |  | labeled them with a high intensity |
